Converted amounts (≈) assume the structure as drawn. Where two headings read alike, the source gives them in different places.
Legend:
[1] = Metabolite profiling of LDN-193189 in liver microsomal/cytosolic fractions of six species (LC/UV/MS, GSH and KCN trapping); conditions: for Species in which the metabolite of LDN-193189 was observed: LDN-193189 10 μM, 60 min, M mouse, R rat, Rb rabbit, D dog, Mo monkey, H human; for metabolite found in rat microsomal incubation with LDN-193189: rat liver microsomes
Experimental: Total incubation volume per sample was 1 mL. The metabolic reactions were initiated by the addition of cofactors, NADPH-regenerating system and UDPGA, after a pre-incubation at 37°C for 5 min. The incubation mixtures were placed in a shaking water bath at 37°C for 60 min. At the end of the reaction, three volumes of ACN were added, followed by vortexing and centrifugation to remove proteins. The supernatants were transferred to clean tubes and dried completely under a stream of nitrogen at ambient temperature. The dried residues were reconstituted with 500 μL of 25% MeOH in water and transferred into HPLC vials for LC/UV/MS analysis.
Chromatography was accomplished on a Phenomenex Luna, C18 (2) column, 3.0 × 250 mm, 5 μm (Torrance, CA, United States). The column was kept at ambient temperature during sample analysis. The mobile phases were HPLC grade water (solvent A) and ACN (solvent B), both of which contained 0.1% trifluoroacetic acid (TFA). […] The first 4 min of the HPLC flow was diverted to waste prior to evaluation of metabolites.
To facilitate distinction of carbon or heteroatom oxidations, hydrogen/deuterium (H/D) exchange experiments were performed by replacing the aqueous mobile phase (H2O) with D2O while keeping the rest of assay conditions unchanged.
UV absorption spectra from 200 to 400 nm were recorded using a diode array detector. The Thermo Finnigan LTQ XL mass spectrometer was equipped with an electrospray ionization (ESI) interface and operated in positive ionization mode for metabolite profiling and identification. Mass spectra were acquired in full scan (MS) (m/z 200–1000) and data dependent scan (MS^2, MS^3, and MS^4) modes. The ESI spray voltage was +5kV with capillary temperature of 300°C. Sheath gas and auxiliary gas were 80 and 20 arbitrary units, respectively. Activation Q was 0.25 and Activation time 30 ms. The collision energy used to obtain fragments was set at 40 eV.

[2] = Stirring double-sink PAMPA permeability; assay type: in vitro ADME; conditions: passive diffusion
Experimental: Parallel Artificial Membrane Permeability Assay (PAMPA) was employed to determine the passive diffusion permeability of LDN-193189 and analogs. Stirring double-sink PAMPA method (pION Inc.) was employed to determine the permeability of compounds. The method was performed as described previously ([Sun et al., 2017]).

[3] = In vitro metabolic stability screening assay with rat liver microsomes; assay type: in vitro ADME; conditions: rat liver microsomes 0.5 mg/mL, 1 μM compound, single time point 15 min, 37°C; read-out: Microsomal Stability t1/2
Experimental: In vitro metabolic stability screening assay was conducted with rat liver microsomes in a 96-well plate, where 1 μM of compound was incubated with 0.5 mg/mL of rat liver microsomal protein. A single time point was collected at 15 min after an incubation at 37°C. […] When the half-life was greater than 30 min, results were presented as >30 min.

[4] = molecular target: T1, ALK2 (Mus musculus, UniProt P37172); experiment: BMP6-stimulated SMAD1/5/8 phosphorylation in C2C12 cells (HTRF); assay type: cell-based; conditions: for IC50: C2C12 cells, SMAD1/5/8 phosphorylation, HTRF, read-out: BMP6 (mediated by ALK2) IC50
T1 construct: determined in C2C12 cell lines (ATCC; Manassas, VA, United States); host or cells: C2C12
T1 sequence (P37172 21-509): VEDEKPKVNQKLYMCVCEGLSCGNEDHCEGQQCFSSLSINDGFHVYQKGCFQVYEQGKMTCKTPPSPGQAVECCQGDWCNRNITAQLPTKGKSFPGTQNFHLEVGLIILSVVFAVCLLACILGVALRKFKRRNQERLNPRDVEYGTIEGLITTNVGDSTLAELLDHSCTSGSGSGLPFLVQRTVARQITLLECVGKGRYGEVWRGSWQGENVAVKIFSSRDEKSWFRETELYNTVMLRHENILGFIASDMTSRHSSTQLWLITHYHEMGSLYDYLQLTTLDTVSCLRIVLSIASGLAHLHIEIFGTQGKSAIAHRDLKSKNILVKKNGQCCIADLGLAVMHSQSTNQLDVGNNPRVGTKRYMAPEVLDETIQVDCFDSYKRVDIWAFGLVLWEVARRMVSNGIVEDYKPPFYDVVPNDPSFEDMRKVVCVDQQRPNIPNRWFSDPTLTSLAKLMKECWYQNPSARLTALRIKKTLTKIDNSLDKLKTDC
Experimental: (§1) The in vitro activity toward to ALK2 and the selectivity over ALK3 and ALK5 were determined in C2C12 cell lines (ATCC; Manassas, VA, United States) through measuring the phosphorylation level of SMAD1/5/8 (for ALK2 and ALK3) or SMAD2/3 (for ALK5) under the stimulation of BMP6 (mediated by ALK2), BMP4 (mediated by ALK3) and TGFβ (mediated by ALK5), respectively, by using homogeneous time resolved fluorescence (HTRF; a manuscript in preparation).

[5] = molecular target: T2, ALK3 (Mus musculus, UniProt P36895); experiment: BMP4-stimulated SMAD1/5/8 phosphorylation in C2C12 cells (HTRF); assay type: cell-based; conditions: read-out: BMP4 (mediated by ALK3) IC50
T2 construct: determined in C2C12 cell lines (ATCC; Manassas, VA, United States); host or cells: C2C12
Experimental: as §1

[6] = Kinetic solubility (μSOL Evolution, pH 7.4 phosphate buffer); assay type: physicochemical; conditions: pH 7.4, aqueous buffer, kinetic from dmso stock
Experimental: Kinetic solubility was measured using the μSOL Evolution system from pION Inc. (Billerica, MA, United States). Saturation shake-flask solubility method was adapted as previously described ([Avdeef and Berger, 2001]). Briefly, 10 mM DMSO stock was diluted to a final drug concentration of 150 μM in the aqueous solution (pH 7.4, 100 mM phosphate buffer) in duplicates. The solution was kept at room temperature for 6 h for equilibration. After equilibration, precipitates were removed using Tecan Te-Vac vacuum-filter and the compound concentration was measured by UV absorbance (λ: 250–498 nm). Data was compared to a fully solubilized reference solution of the test article at 17 μM in spectroscopically pure n-propanol. The kinetic solubility (μg/mL) was calculated using the μSOL Evolution software.

[7] = Metabolite formation in human and mouse liver subcellular fractions (LC/UV/MS, trapping); assay type: in vitro ADME; conditions: for cyanide (KCN) adduct: KCN trapping; for metabolism in cytosol incubation (AO-mediated): liver cytosol; for GSH adduct: microsomal incubation with NADPH and GSH, mouse and human; for Species in which the metabolite of Compound 2 was observed / Species in which the metabolite of Compound 3 was observed: H human, M mouse
[8] = molecular target: T3, ALK5 (Mus musculus, UniProt Q64729); experiment: TGFβ-stimulated SMAD2/3 phosphorylation in C2C12 cells (HTRF); assay type: cell-based
T3 construct: determined in C2C12 cell lines (ATCC; Manassas, VA, United States); host or cells: C2C12
T3 sequence (Q64729 30-503): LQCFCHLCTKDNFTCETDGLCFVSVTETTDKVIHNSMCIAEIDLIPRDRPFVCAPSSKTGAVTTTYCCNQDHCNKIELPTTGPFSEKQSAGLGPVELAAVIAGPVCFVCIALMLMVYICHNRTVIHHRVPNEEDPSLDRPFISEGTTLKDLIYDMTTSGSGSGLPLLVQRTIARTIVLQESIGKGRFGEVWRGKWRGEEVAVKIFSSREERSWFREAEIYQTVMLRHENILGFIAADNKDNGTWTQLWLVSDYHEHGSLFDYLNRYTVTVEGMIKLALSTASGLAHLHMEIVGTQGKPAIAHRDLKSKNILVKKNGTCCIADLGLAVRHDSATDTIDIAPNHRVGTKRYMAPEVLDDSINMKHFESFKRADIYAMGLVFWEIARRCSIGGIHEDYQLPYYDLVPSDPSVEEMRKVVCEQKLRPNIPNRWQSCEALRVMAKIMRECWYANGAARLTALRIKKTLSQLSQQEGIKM
Experimental: as §1

[9] = Metabolite profiling in human liver microsomes and cytosol (LC/UV/MS, inhibitors, trapping)
[10] = test system: mouse FOP disease model; parameters: method as in Yu et al., 2008a; conditions: ref Yu et al., 2008a; cited from earlier work
[11] = parameters: method as in Cuny et al., 2008; conditions: mice, intraperitoneal administration; ref Cuny et al., 2008; cited from earlier work
[12] = C2C12 cells, SMAD2/3 phosphorylation, HTRF, read-out: TGFβ (mediated by ALK5) IC50

T2 sequence (P36895 24-532): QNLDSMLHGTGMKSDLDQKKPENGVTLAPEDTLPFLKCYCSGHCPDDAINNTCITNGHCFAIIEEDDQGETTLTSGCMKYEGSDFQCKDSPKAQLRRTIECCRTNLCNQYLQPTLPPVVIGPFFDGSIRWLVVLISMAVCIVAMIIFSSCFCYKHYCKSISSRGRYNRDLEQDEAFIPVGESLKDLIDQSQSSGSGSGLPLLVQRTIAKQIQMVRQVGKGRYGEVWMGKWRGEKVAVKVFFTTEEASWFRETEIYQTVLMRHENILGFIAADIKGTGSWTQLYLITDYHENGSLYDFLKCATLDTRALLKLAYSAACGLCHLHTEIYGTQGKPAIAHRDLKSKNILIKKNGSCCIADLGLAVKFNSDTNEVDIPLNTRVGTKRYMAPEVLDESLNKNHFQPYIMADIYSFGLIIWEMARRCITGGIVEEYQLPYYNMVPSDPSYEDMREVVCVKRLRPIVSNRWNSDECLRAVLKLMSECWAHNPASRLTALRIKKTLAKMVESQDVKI

In the case of `OCCNc1ccc(-c2cnc3c(-c4ccnc5ccccc45)cnn3c2)cc1` [Compound M381], the “Species in which the metabolite of LDN-193189 was observed” value (from here on “Species … of LDN-193189 was observed”) [1] is reported as “Rb, D, Mo, H”.

For `Cc1cc(-c2cnn3cc(-c4ccc(OCCN5CCCCC5)nc4)cnc23)c2ccccc2n1` [Compound 3], the Papp [2] was 10700 nm/s, the half-life at 1 μM [3] was > 30 min and the IC50 [4] was 0.466 µM. For the same compound, the “potency against ALK2 mediated signaling compared to LDN-193189” value ([4]; relative to LDN-193189) was “threefold less potent”, the IC50 [5] was 4.34 µM and the solubility at 6 h [6] was 36.2 µg/mL (≈ 77.9 µM). The aniline formation [7] was “Neither aniline formation nor cytosolic metabolism were observed”, the “cyanide (KCN) adduct” value [7] was “No cyanide adduct or glucuronide conjugate was observed” and the glucuronide conjugate ([7]; UDPGA) was “No cyanide adduct or glucuronide conjugate was observed”. The “metabolism in cytosol incubation (AO-mediated)” value (from here on “metabolism in cytosol incubation”) [7] was “No metabolite formation was observed”, the GSH adduct [7] was “observed only in mouse microsomal incubation” and the IC50 [8, 12] was 2.66 µM.

In the case of `Cc1cc(-c2cnn3cc(-c4ccc(N5CCNCC5)cc4)cnc23)c2ccccc2n1` [Compound 1], the Papp [2] is reported as 4370 nm/s, the half-life at 1 μM [3] is reported as > 30 min and the IC50 [4] is reported as 0.12 µM. For the same compound, the solubility at 6 h [6] was 1 µg/mL (≈ 2.38 µM), the glucuronide conjugate ([9]; UDPGA-fortified human liver microsomes) was “No glucuronide conjugate was observed” and the “metabolism in cytosol incubation” value ([9]; human liver cytosol) was “No metabolism was observed”. For the same compound, the “extent of metabolism in human liver microsomes” value ([9]; human liver microsomes) was “metabolized moderately”, the “GSH adduct in trapping experiments” value ([9]; human liver microsomes, GSH) was “no GSH or cyanide adduct was detected” and the “cyanide adduct in trapping experiments” value ([9]; human liver microsomes, KCN) was “no GSH or cyanide adduct was detected”. The aniline derivatives ([9]; human microsomal fractions) was “No aniline derivatives were observed” and the IC50 [8] was 0.987 µM.

For `c1ccc2c(-c3cnn4cc(-c5ccc(OCCN6CCCCC6)nc5)cnc34)ccnc2c1` [Compound 2], the Papp [2] was 70 nm/s, the half-life at 1 μM [3] was 22 min and the IC50 [4] was 0.227 µM. For the same compound, the IC50 [5] was 3.27 µM, the solubility at 6 h [6] was < 1 µg/mL and the aniline formation [7] was “not detected”. For the same compound, the “cyanide (KCN) adduct” value [7] was “not detected”, the “metabolism in cytosol incubation” value [7] was “An oxidative metabolite was observed” and the GSH adduct [7] was “observed only in mouse microsomal incubation”. The IC50 [8, 12] was 27.4 µM.

In the case of `Nc1ccc(-c2cnc3c(-c4ccnc5ccccc45)cnn3c2)cc1` [Compound M337], the “Species … of LDN-193189 was observed” value [1] is reported as “M, Rb, D, Mo, H” and the “metabolite found in rat microsomal incubation with LDN-193189” value [1] is reported as “not found”.

In the case of `N#CC1CNCCN1c1ccc(-c2cnc3c(-c4ccnc5ccccc45)cnn3c2)cc1` (stereo not shown) [Compound M431], the “Species … of LDN-193189 was observed” value [1] is reported as “M, R, Rb, D, Mo, H”.

For `O=C1CN(c2ccc(-c3cnc4c(-c5ccnc6ccccc56)cnn4c3)cc2)CCN1` [Compound M420], the “Species … of LDN-193189 was observed” value [1] was “M, R, Rb, D, Mo, H”.

With `Oc1cc(-c2cnn3cc(-c4ccc(N5CCNCC5)cc4)cnc23)c2ccccc2n1` [Compound M422c] the “Species … of LDN-193189 was observed” value [1] was “all species except dog”.

In the case of `N#CC1CNC(=O)CN1c1ccc(-c2cnc3c(-c4ccnc5ccccc45)cnn3c2)cc1` (stereo not shown) [Compound M445], the “Species … of LDN-193189 was observed” value [1] is reported as “M, R, Rb, D, Mo, H”.

In the case of `C[C@]12CC[C@H]3[C@@H](CCC4=CC(=O)CC[C@@]43C)[C@@H]1CC[C@@H]2O` [testosterone, reference compound], the “metabolite formation of positive control” value ([9]; human liver microsomes, 100 μM, 20 min) is reported as “showed the expected metabolite formation”.

In the case of `c1ccc2c(-c3cnn4cc(-c5ccc(N6CCNCC6)cc5)cnc34)ccnc2c1` [LDN-193189, reference compound], the Papp [2] is given as 3200 nm/s, the “efficacy in an animal model of FOP” value [10] is given as “efficacious” and the half-life at 1 μM [3] is given as > 30 min. For the same compound, the IC50 [5] was 0.585 µM, the solubility at 6 h [6] was 1.1 µg/mL (≈ 2.71 µM) and the glucuronide conjugates ([1]; UDPGA 2 mM) was “no glucuronide conjugates observed”. For the same compound, the “GSH trapping of reactive metabolites” value ([1]; liver microsomes from any species, GSH 2 mM) was “no “soft electrophiles” were produced”, the “rank ordering of the metabolic conversion in liver microsomes” value ([1]; liver microsomes, no cytosol added) was “dog > rabbit > mouse > human ∼ monkey > rat” and the “extent of metabolic conversion to M422c, order of species” value ([1]; liver preparations with cytosol) was “monkey > rabbit > human > mouse > rat with no conversion observed in dog liver preparations”. The “formation of M422c on addition of XO inhibitor allopurinol” value ([9]; human liver cytosol, allopurinol 0.1 mM) was “did not result in a change”, the “formation of M422c in the presence of AO inhibitor menadione” value ([9]; human liver cytosol, menadione 1 mM) was “reduced” and the “plasma t1/2” value [11] was 96 min.

For `NCCNc1ccc(-c2cnc3c(-c4ccnc5ccccc45)cnn3c2)cc1` [Compound M380], the “metabolite found in rat microsomal incubation with LDN-193189” value [1] was “not found”.

With `O=c1cc(-c2cnn3cc(-c4ccc(OCCN5CCCCC5)nc4)cnc23)c2ccccc2[nH]1` [Compound M466d] the “Species in which the metabolite of Compound 2 was observed” value [7] was “H, M”.

For `O=C(O)CNc1ccc(-c2cnc3c(-c4ccnc5ccccc45)cnn3c2)cc1` [Compound M395], the “Species … of LDN-193189 was observed” value [1] was “Rb, D, Mo, H”.

With `CN1CCC[C@H]1c1cccnc1` [Nicotine, reference compound] the “cyanide adducts in KCN trapping” value ([1]; liver microsomes, KCN 0.1 mM) was “produced the expected cyanide derivatives”.

In the case of `Cc1cc(-c2cnn3cc(-c4ccc(OCCO)nc4)cnc23)c2ccccc2n1` [Compound M397], the “Species in which the metabolite of Compound 2 was observed” value [7] is reported as “H, M” and the “Species in which the metabolite of Compound 3 was observed” value [7] is reported as “H, M”.

For `Cc1cc(-c2cnn3cc(-c4ccc(OCC(=O)O)nc4)cnc23)c2ccccc2n1` [Compound M411], the “Species in which the metabolite of Compound 3 was observed” value [7] was “H, M”.

In the case of `NCCN(CC(=O)O)c1ccc(-c2cnc3c(-c4ccnc5ccccc45)cnn3c2)cc1` [Compound M438], the “Species … of LDN-193189 was observed” value [1] is reported as “M, R, Rb, D, Mo, H”.

Reference: paper PMC6491728, “Application of in vitro Drug Metabolism Studies in Chemical Structure Optimization for the Treatment of Fibrodysplasia Ossificans Progressiva (FOP)” (Frontiers in Pharmacology, 2019)
